Assay results published in ChEMBL document CHEMBL1240371, “Randomized, double-blind study of the safety, tolerability, and efficacy of tafenoquine versus mefloquine for malaria prophylaxis in nonimmune subjects” (Antimicrob Agents Chemother, 2010).

Assays:
Conditions in all cases: in vivo, po
Homo sapiens [1] = organism: Homo sapiens; experiment: Toxicity in […] assessed as incidence of diarrhea at 250 mg, perorally for 3 days and weekly 250 mg, perorally maintenance dose for 26 +/- 4 weeks; type: organism-based
Homo sapiens [2] = organism: Homo sapiens; experiment: Toxicity in […] assessed as incidence of rash at 250 mg, perorally for 3 days and weekly 250 mg, perorally maintenance dose for 26 +/- 4 weeks; type: organism-based
Homo sapiens [3] = organism: Homo sapiens; experiment: Toxicity in […] assessed as incidence of abnormal retinal fluorescein at 250 mg, perorally for 3 days and weekly 250 mg, perorally maintenance dose for 26 +/- 4 weeks; type: organism-based
Homo sapiens [4] = organism: Homo sapiens; experiment: Toxicity in […] assessed as incidence of arthralgia at 250 mg, perorally for 3 days and weekly 250 mg, perorally maintenance dose for 26 +/- 4 weeks; type: organism-based
Homo sapiens [5] = organism: Homo sapiens; experiment: Toxicity in […] assessed as incidence of nausea at 250 mg, perorally for 3 days and weekly 250 mg, perorally maintenance dose for 26 +/- 4 weeks; type: organism-based
Homo sapiens [6] = organism: Homo sapiens; experiment: Toxicity in […] assessed as incidence of headache at 250 mg, perorally for 3 days and weekly 250 mg, perorally maintenance dose for 26 +/- 4 weeks; type: organism-based
Homo sapiens [7] = organism: Homo sapiens; experiment: Toxicity in […] assessed as incidence of viral infection at 250 mg, perorally for 3 days and weekly 250 mg, perorally maintenance dose for 26 +/- 4 weeks; type: organism-based
Homo sapiens [8] = organism: Homo sapiens; experiment: Toxicity in […] assessed as incidence of abnormal coordination at 250 mg, perorally for 3 days and weekly 250 mg, perorally maintenance dose for 26 +/- 4 weeks; type: organism-based
Homo sapiens [9] = organism: Homo sapiens; experiment: Toxicity in […] assessed as incidence of gastroentertis at 250 mg, perorally for 3 days and weekly 250 mg, perorally maintenance dose for 26 +/- 4 weeks; type: organism-based
Homo sapiens [10] = organism: Homo sapiens; experiment: Toxicity in […] assessed as incidence of musculoskeletal injury at 250 mg, perorally for 3 days and weekly 250 mg, perorally maintenance dose for 26 +/- 4 weeks; type: organism-based
Homo sapiens [11] = organism: Homo sapiens; experiment: Toxicity in […] assessed as incidence of phayngitis at 250 mg, perorally for 3 days and weekly 250 mg, perorally maintenance dose for 26 +/- 4 weeks; type: organism-based
Homo sapiens [12] = organism: Homo sapiens; experiment: Toxicity in […] assessed as incidence of insomnia at 250 mg, perorally for 3 days and weekly 250 mg, perorally maintenance dose for 26 +/- 4 weeks; type: organism-based
Homo sapiens [13] = organism: Homo sapiens; experiment: Toxicity in […] assessed as incidence of somnolence at 250 mg, perorally for 3 days and weekly 250 mg, perorally maintenance dose for 26 +/- 4 weeks; type: organism-based
Homo sapiens [14] = organism: Homo sapiens; experiment: Toxicity in […] assessed as incidence of fungal dermatitis at 250 mg, perorally for 3 days and weekly 250 mg, perorally maintenance dose for 26 +/- 4 weeks; type: organism-based
Homo sapiens [15] = organism: Homo sapiens; experiment: Toxicity in […] assessed as incidence of upper respiratory tract infection at 250 mg, perorally for 3 days and weekly 250 mg, perorally maintenance dose for 26 +/- 4 weeks; type: organism-based
Homo sapiens [16] = organism: Homo sapiens; experiment: Toxicity in […] assessed as incidence of vomiting at 250 mg, perorally for 3 days and weekly 250 mg, perorally maintenance dose for 26 +/- 4 weeks; type: organism-based
Homo sapiens [17] = organism: Homo sapiens; experiment: Toxicity in […] assessed as incidence of increase in bilirubin at 250 mg, perorally for 3 days and weekly 250 mg, perorally maintenance dose for 26 +/- 4 weeks; type: organism-based
Homo sapiens [18] = organism: Homo sapiens; experiment: Toxicity in […] assessed as incidence of abdominal pain at 250 mg, perorally for 3 days and weekly 250 mg, perorally maintenance dose for 26 +/- 4 weeks; type: organism-based, Abdomen
Homo sapiens [19] = organism: Homo sapiens; experiment: Toxicity in […] assessed as incidence of back pain at 250 mg, perorally for 3 days and weekly 250 mg, perorally maintenance dose for 26 +/- 4 weeks; type: organism-based
Homo sapiens [20] = organism: Homo sapiens; experiment: Toxicity in […] assessed as incidence of abnormal dreams at 250 mg, perorally for 3 days and weekly 250 mg, perorally maintenance dose for 26 +/- 4 weeks; type: organism-based
Homo sapiens [21] = organism: Homo sapiens; experiment: Toxicity in […] assessed as incidence of dizziness at 250 mg, perorally for 3 days and weekly 250 mg, perorally maintenance dose for 26 +/- 4 weeks; type: organism-based
Homo sapiens [22] = organism: Homo sapiens; experiment: Toxicity in […] assessed as incidence of pigmentation of retinal epithelium at 250 mg, perorally for 3 days and weekly 250 mg, perorally maintenance dose for 26 +/- 4 weeks; type: organism-based
Homo sapiens [23] = organism: Homo sapiens; experiment: Toxicity in […] assessed as incidence of depression at 250 mg, perorally for 3 days and weekly 250 mg, perorally maintenance dose for 26 +/- 4 weeks; type: organism-based
Homo sapiens [24] = organism: Homo sapiens; experiment: Toxicity in […] assessed as incidence of increase in serum creatinine at 250 mg, perorally for 3 days and weekly 250 mg, perorally maintenance dose for 26 +/- 4 weeks; type: organism-based
Homo sapiens [25] = organism: Homo sapiens; experiment: Toxicity in […] assessed as incidence of vertigo at 250 mg, perorally for 3 days and weekly 250 mg, perorally maintenance dose for 26 +/- 4 weeks; type: organism-based

`OC(c1cc(C(F)(F)F)nc2c(C(F)(F)F)cccc12)C1CCCCN1` (stereo not given) [MEFLOQUINE] gave an Activity (Homo sapiens [1]) of 30%, an Activity (Homo sapiens [2]) of 21% and an Activity (Homo sapiens [3]) of 100%. It also gave an Activity (Homo sapiens [4]) of 18%, an Activity (Homo sapiens [5]) of 13% and an Activity (Homo sapiens [6]) of 20%. It also gave an Activity (Homo sapiens [7]) of 13%, an Activity (Homo sapiens [8]) of 1% and an Activity (Homo sapiens [9]) of 51%. It also gave an Activity (Homo sapiens [10]) of 49%, an Activity (Homo sapiens [11]) of 3% and an Activity (Homo sapiens [12]) of 3%. For the same molecule, the Activity (Homo sapiens [13]) was 6%, the Activity (Homo sapiens [14]) was 8% and the Activity (Homo sapiens [15]) was 32%. For the same molecule, the Activity (Homo sapiens [16]) was 8%, the Activity (Homo sapiens [17]) was 0.6% and the Activity (Homo sapiens [18]) was 13%. It also gave an Activity (Homo sapiens [19]) of 26%, an Activity (Homo sapiens [20]) of 2% and an Activity (Homo sapiens [21]) of 2%. The Activity (Homo sapiens [22]) was 23.5%, the Activity (Homo sapiens [23]) was 1% and the Activity (Homo sapiens [24]) was 10%. It also gave an Activity (Homo sapiens [25]) of 8%.
